For 92 compounds, AC50 results are on record in PubChem BioAssay AID463074 (Broad Institute, 2010).

As usually defined, the AC50 is the midpoint of the concentration-response curve, whichever way the signal moves.

Activity calls are given as the source filed them.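 The calls were made as follows: active = AC50 no more than tenfold above the top dose tested, or full inhibition at every dose with a flat fit (cut at about 19 µM in these data); inconclusive = flat curve fit with inhibition between 30% and 70%, or poor fit; inactive = AC50 more than tenfold above the top dose tested.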

The subject of the test is HMLE_sh_eGFP viability, CellTiter-Glo luminescence, 72 h. In words: viability loss of HMLE_sh_eGFP cells – cell-based, luminescence, counter-screen for HMLE_sh_ECad selective toxicity project, dose response (AID 463074).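 Also: counterscreen control line to flag general toxicity for the HMLE_sh_ECad screen; potency for loss of viability as luminescence drops below DMSO wells.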 For orientation: Counterscreens check selectivity or assay interference.
On to `CCOC(=O)c1c(NC(=O)c2nn(CC)cc2Br)sc2c1CCCCC2`, for which the AC50 was 1.95 µM. In the case of `CC(=O)N(C)c1ccc(OCC(O)Cn2c3ccc(Cl)cc3c3cc(Cl)ccc32)cc1` (configuration not stated), the AC50 was 1.65 µM. For the compound `CCN1CCN(C(=O)c2ccc(CSc3ccc(C)cc3)cc2)CC1`, the AC50 is 0.22 µM. Then `COc1cc(/C=N/O)cc(Br)c1OCc1cccc(Cl)c1`, with 6.68 µM; and `O=[N+]([O-])c1ccc(Cl)c(/C=N/n2c(C3CCCCC3)n[nH]c2=S)c1`, with > 19.5 µM (inactive); and `C=CCn1c(SCc2c(C)noc2C)nc2ccccc2c1=O`, with 1.78 µM. Then `O=C(Nc1ccc2nc3n(c(=O)c2c1)CCCCC3)c1cc([N+](=O)[O-])ccc1F`, with 6.62 µM. As to `CC(C)OC(=O)C(=O)NNc1ccccc1`, the AC50 is 1.22 µM. In the case of `O=S(=O)(c1ccc(Cl)cc1)N1CCC(n2cnc3cc(C(F)(F)F)ccc32)CC1`, the concentration at half-maximal activity (AC50) was 4 µM. Then `COc1cc(/C=N/N(c2ccccc2)c2ccccc2)ccc1O`, with 6.34 µM; and `O=C(Nc1ccc(Br)cn1)c1cccc(-c2cc3ccccc3oc2=O)c1`, with 12.3 µM; and `COc1ccc(-c2sc3ccccc3c2-c2ccc(OCCN3CCOCC3)cc2)cc1`, with 1.51 µM.

Consider `CC(C)c1ccc(NC(=O)c2snc3ccc(Cl)cc23)cc1`, for which the AC50 is 3.62 µM. For `C[C@]12CC[C@H](O)C[C@H]1CC[C@@H]1[C@@H]2C[C@@H](O)[C@]2(C)[C@@H](C3=CC(=O)OC3)CC[C@]12O`, the AC50 was 0.654 µM. Consider `Cc1cc(C(=O)CN2C(=O)C(=O)N(Cc3ccccc3)C2=O)c(C)n1Cc1ccccc1`, for which the AC50 was 11.8 µM. For `COc1cc(NC(=O)Nc2cccc(Cl)c2)c(OC)cc1NC(=O)CN1CCCCC1` the value was 4.3 µM; for `Cc1c(C(=O)Nc2ccc(-c3nnc4n3CCCCC4)cc2)oc2c1ccc1ccccc12`, 5.66 µM. As for `O=C1NC(=O)N(Cc2ccccc2)C(=O)/C1=C/C=C/c1ccco1`, the AC50 is 2.04 µM. Regarding `C=C(C)COc1ccc(-c2nc(N)ncc2-c2ccc(Br)cc2)c(O)c1`, the AC50 was 7.37 µM. Take `CN(C)c1ccc(-c2cc([C@H]3[C@@H]4C=CCC[C@@]4(C)C(=O)N3Cc3ccccc3)ccc2F)cc1`: the AC50 is 6.46 µM. For `CCCOc1ccc(/C=N/Nc2cc(N3CCOCC3)ncn2)c(O)c1`, the AC50 was 3.38 µM. Consider `CC(C)N1CCc2c(sc(NC(=O)c3cc(-c4cccs4)nc4ccccc34)c2C(N)=O)C1`, for which the AC50 is 12.9 µM. For `Cc1ccc([N+](=O)[O-])cc1-c1ccc(/C=C(\C#N)c2[nH]nc(N)c2C#N)o1` the value was 4.84 µM.

Take `COc1ccc(C(=O)CSc2nnc(CN3CCCCC3)n2-c2ccc(Cl)cc2)cc1OC`: the AC50 was 9.46 µM.

For `COc1cc(OC)cc(C(=O)NCCNc2nc3cc(C)cc(C)c3cc2C#N)c1`, the AC50 was > 19.5 µM (inactive).

On to `O=C(Nc1ccc(S(=O)(=O)N2CCOCC2)cc1)c1cc(-c2cc(Cl)ccc2O)n[nH]1`, for which the AC50 is 2.18 µM. Then `CCC(=O)NNc1ccc(Br)cc1`, with 6.69 µM; and `O=C(Nc1ccccc1Cc1ccccc1)c1ccccc1NS(=O)(=O)c1ccc(Cl)s1`, with 1.84 µM. Then `COc1ccc(C(=O)/C=C/c2cc(OC)c(O)c(OC)c2)c(F)c1`, with 12.3 µM. For `CCc1ccc(N2C(=O)NC(=O)/C(=C\C=C\c3ccco3)C2=O)cc1`, the AC50 was 3.72 µM. For `COc1ccc(CNCC(O)COc2ccc(C(C)(C)c3ccccc3)cc2)cc1` (configuration not stated), the AC50 was 3.22 µM. Then `COc1ccc(O)c(/C=N/Nc2nc(Nc3ccccc3)nc(-n3nc(C)cc3C)n2)c1`, with 3.52 µM.

With `COC(=O)c1c(NC(=O)c2ccccc2)sc2c1CC(C)(C)OC2`, the AC50 is > 19.5 µM (inactive).

Regarding `Cc1ccc(-c2nc(C(Cl)Cl)c3ccccc3n2)cc1`, the AC50 is 1.33 µM.

In the case of `Cc1nn2c(COc3ccc(NC(=O)c4ccccc4Cl)cc3)nnc2c2ccccc12`, the AC50 was 3.08 µM. Consider `CCCCCCCCOC(=O)C1=C(C)Nc2nnnn2C1c1cccs1` (configuration not stated), for which the AC50 was 6.86 µM.

On to `Cc1ccsc1/C=C/c1ccc2cccc(O)c2n1`, for which the AC50 was 17 µM. For `CC12CCC3C(CC=C4CC(O)CCC43C)C1C/C(=C\c1ccccc1F)C2=O` (configuration not stated) the value was 4.04 µM; for `Cc1ccc2nc(NC(=O)c3cccc(-c4cc5ccccc5oc4=O)c3)sc2c1`, > 19.5 µM (inactive). Consider `CC(C)(C)OC(=O)NCCc1nnc(S(=O)(=O)Cc2ccc(Cl)cc2Cl)o1`, for which the AC50 is 5.73 µM. Regarding `CCCCCc1cc(=O)oc2c(C(CCN(CC)CC)c3cc(OC)c(OC)c(OC)c3)c(OC)cc(OC)c12` (configuration not stated), the AC50 was 14.3 µM.

Turning to `CC(C)Cc1nc2oc3c(Cl)ncnc3c2c2c1CCCC2`, the AC50 is 4.82 µM. Then `Cc1cccc(-c2oc3ccccc3c2C#CCCCCO)c1`, with 7.62 µM; and `Cc1ccc(C(=O)CSC2=C(C#N)C(c3ccco3)C3=C(CC(C)(C)CC3=O)N2)cc1` (configuration not stated), with 3.33 µM. Regarding `N#Cc1c(-c2ccccc2)nc(SCc2cccc(Cl)c2)[nH]c1=O`, the AC50 was 7.69 µM.

On to `Cc1ccc(/C=C/C(=O)NCCc2ccccc2)o1`, for which the AC50 was > 19.5 µM (inactive). For `COc1ccc(OC)c(C(=O)CSc2nccc(-c3ccc(Br)cc3)n2)c1` the value was 1.31 µM. Consider `COc1cc(-c2noc(C)c2/C=C/c2ccc(OC(C)=O)cc2)cc(OC)c1OC`, for which the AC50 was 0.292 µM. Then `CC(C)c1nc2sc3ccccc3c(=O)c2c(=O)n1Cc1ccccc1`, with 6.29 µM; and `Cc1cccc(-c2nc(Nc3cccc(O)c3)c3ccccc3n2)c1`, with 5.27 µM. Then `Cc1ccc(NNC(=O)c2ccno2)cc1Cl`, with 4 µM; and `Cc1nc2c(sc3nc(N4CCOCC4)c4c(c32)CC(C)(C)OC4)c(-c2ccccc2)c1C(=O)O`, with 1.98 µM; and `COc1ccccc1NC(=O)Nc1ccc(-n2ccc(C(F)(F)F)n2)cc1`, with 10.3 µM. Regarding `COC(=O)c1c(-c2ccc(OC)cc2)oc2ccc(-c3cc(OC)c(OC)c(OC)c3)cc12`, the AC50 was 4.97 µM.

`Cc1ccc(C(=O)/C=C/c2cc(Br)cc(Br)c2O)o1`: the AC50 was 3.57 µM. On to `c1cn2c(NC3CCCCC3)c(-c3ccc(SC4CCCCC4)cc3)nc2cn1`, for which the AC50 was 3.26 µM. Then `COc1ccc2nc(C)cc(SCC(=O)N/N=C/c3cccc4ccccc34)c2c1`, with 1.86 µM; and `C=C1C(=O)C=C[C@]2(C)C[C@@H]3OC(=O)[C@](C)(O)[C@H]3C[C@@H]12`, with 9.76 µM; and `Cc1cccc(Nc2nc(-c3ccc(O)cc3O)cs2)n1`, with 7.5 µM. As to `COc1ccc(OC)c(NC(=O)c2nc(S(=O)(=O)Cc3ccccc3)ncc2Cl)c1`, the AC50 is 6.74 µM. For `O=C(/C=C/c1ccccc1)NNc1ccc(Cl)cc1` the value was 12 µM. For the compound `O=C(CNC(=S)N(Cc1ccccc1)Cc1ccccc1F)NCCc1ccc(Cl)cc1`, the AC50 is 6.98 µM.

As for `CC(=O)n1c2c(c3ccccc31)OC(N)=C(C#N)C2c1cccc(Cl)c1Cl` (configuration not stated), the AC50 was 4.88 µM. Consider `O=[N+]([O-])c1cccc(-c2cc(-c3cc(Br)ccc3O)[nH]n2)c1`, for which the AC50 was 7.53 µM. Then `Cc1cc2c(cc1C)CSC(c1c(O)ccc3ccccc13)SC2`, with 3.12 µM; and `CN(CC(=O)Nc1ccccc1Cl)C(=O)c1cccc(-n2cccc2)c1`, with > 19.5 µM (inactive).

`COc1ccc(-c2csc(NC(=S)NC(=O)/C=C/c3ccco3)n2)cc1Br`: the AC50 was 1.98 µM. Turning to `CCOc1ccc(/C=C/C(O)=C2/C(=O)N(C)C3(C)CC2c2ccccc2O3)cc1OC` (configuration not stated), the AC50 was 5.95 µM. For `Cc1c(O)cc2c(c1O)C(=O)CC(c1ccccc1)O2` (configuration not stated), the AC50 was 15.2 µM.

On to `O=[N+]([O-])c1ccc(N2N=C(c3ccccc3)CC2c2ccccc2O)cc1` (configuration not stated), for which the AC50 is 2.51 µM.

As to `CCc1ccc(NC(=O)C(CC)Sc2nc3cc4c(cc3c(=O)n2Cc2ccco2)OCO4)cc1` (configuration not stated), the AC50 is 13.1 µM. For `CC(C)(C)c1ccc(C(=O)CC(Sc2ccc(Cl)cc2)C(=O)O)cc1` (configuration not stated) the value was 9.07 µM. Then `CCCC(=O)Nc1nc2ccc(NC(=O)c3c(F)c(F)c(OC)c(F)c3F)cc2s1`, with 1.56 µM. Turning to `COC(=O)C1=C(C)N(Cc2ccccc2)C(=NCc2cccc(Cl)c2)N[C@H]1c1cccc(F)c1`, the AC50 is 3.62 µM. For `CCOc1cc(CNCCO)cc(Br)c1OCc1ccc(Cl)cc1Cl` the value was 6.68 µM; for `CCc1ccc2nc(N(CCCN(C)C)C(=O)c3ccc(S(=O)(=O)N4CCCc5ccccc54)cc3)sc2c1`, 6.98 µM; for `O=C(O)c1cccc(S(=O)(=O)NNc2ccccc2C(F)(F)F)c1`, 11.3 µM.

For `O=C(Nc1ccc(-c2csc(Nc3ccc(Cl)cc3)n2)cc1)c1cc([N+](=O)[O-])cc(C(F)(F)F)c1`, the AC50 is 3.08 µM. For `Cc1cccc(-n2c(/C=C/c3ccc([N+](=O)[O-])o3)nc3ccccc3c2=O)c1` the value was 1.99 µM; for `Cc1nc(NC(=O)CC(C)C)sc1-c1csc(Nc2ccc(Cl)cc2Cl)n1`, 2.38 µM. For `CC(C)COC(=O)c1cccc2c1-c1ccccc1/C2=N\O` the value was 5.27 µM. Then `CC1(C)CN(c2ccccc2)N(C(=O)c2ccc(C#N)cc2)C1=O`, with 4.31 µM; and `COc1ccc(C(=O)Nc2ccc(Nc3ccccc3)cc2)cc1[N+](=O)[O-]`, with 4.19 µM; and `Cc1ccc(N/N=C/c2c(O)n(-c3ccccc3)c(=O)[nH]c2=O)cc1`, with 3.87 µM. Take `Cc1ccc(-c2csc3ncnc(NS(=O)(=O)c4ccc(Cl)cc4)c23)cc1`: the AC50 is 11.6 µM. As to `O=C(NCCc1ccccc1)c1cc(-c2ccccc2)c(N2CCOCC2)s1`, the AC50 is 3.61 µM.

For the compound `CCOC(=O)C1=C(c2ccccc2)N=c2s/c(=C\c3cccc(O)c3)c(=O)n2C1c1cccs1` (configuration not stated), the AC50 was 3.39 µM. On to `CCCn1nc([N+](=O)[O-])c(C(C#N)c2nc3ccccc3o2)c(Cl)c1=O` (configuration not stated), for which the AC50 was 5.81 µM. `Cc1cccc(-n2cc(CN(C)Cc3nccn3C)c(-c3cccc(F)c3)n2)c1`: the AC50 is 15.5 µM.

For `CN(C)CCNC(=O)/C(=C/c1ccc(-c2ccc(Cl)cc2Cl)o1)NC(=O)c1ccccc1`, the AC50 is 4.78 µM. On to `C[C@@H]1CN([C@@H](C)CO)C(=O)c2cc(NC(=O)Nc3ccc(F)cc3)ccc2O[C@@H]1CN(C)Cc1ccc(Oc2ccccc2)cc1`, for which the AC50 was 3.48 µM. Turning to `Cc1c(C(=O)c2cccc3ccccc23)c2cccc3c2n1[C@H](CN1CCOCC1)CO3`, the AC50 was 3.66 µM.
